What all share (assay type): functional
One experiment relates to Saccharomyces cerevisiae. The experiment can be described thus: Antifungal activity against Saccharomyces cerevisiae ATCC 9763 by broth dilution susceptibility test.
A further experiment concerns Aspergillus flavus. Description: Antifungal activity against Aspergillus flavus ATCC 204304 by broth dilution susceptibility test.
In a further experiment the test system is Nakaseomyces glabratus. The experiment can be described thus: Antifungal activity against Candida glabrata ATCC 90030 by broth dilution susceptibility test. (Dilution methods test growth across graded concentrations, often in twofold steps.)
The next experiment relates to Pichia kudriavzevii. The experiment can be described thus: Antifungal activity against Candida krusei LSPQ 0309 by broth dilution susceptibility test.
In another experiment the test system is Candida albicans. The experiment can be described thus: Antifungal activity against Candida albicans ATCC 10231 by broth dilution susceptibility test.
In another experiment the test system is Cryptococcus neoformans. The experiment can be described thus: Antifungal activity against Cryptococcus neoformans ATCC 32045 by broth dilution susceptibility test.
The next experiment deals with Aspergillus fumigatus. The experiment can be described thus: Antifungal activity against Aspergillus fumigatus ATCC 204305 by broth dilution susceptibility test.
The next experiment relates to Clavispora lusitaniae. Description: Antifungal activity against Candida lusitaniae ATCC 200953 by broth dilution susceptibility test.
The next experiment has as its system Candida tropicalis. The experiment can be described thus: Antifungal activity against Candida tropicalis ATCC 200955 by broth dilution susceptibility test.

Molecules are shown by their SMILES. Values after ≈ are worked out from the molar mass of the structure shown. A value given as a limit tells only on which side of the number the result lay.

Usually MIC stands for the smallest concentration in the dilution series that meets the test's criterion for growth inhibition. Low values mean greater potency, high ones weaker potency. For the molecule `CC(/C=C/CC/C=C/C=C/C=C/C=C/C(=O)NC1=C(O)CCC1=O)C(O)C(C)C(O)/C=C/C=C/C=C/C=C/C=C/CC(O[C@@H]1O[C@@H](C)[C@H](O)[C@@H](O)[C@H]1O)C(C)C(=O)CC(O)CC(O)CC(O)/C=C/CC(O)CC(O)CC(O)CC(O)/C=C/CC(O)CC(O)CCCN` (stereo in doubt), the minimal inhibitory concentration (MIC) in the experiment on Saccharomyces cerevisiae was 4 µg/mL (≈ 3.08 µM); in the experiment on Aspergillus flavus it was not below 8 µg/mL; against Nakaseomyces glabratus it was 4 µg/mL (≈ 3.08 µM); in the experiment with Pichia kudriavzevii, 4 µg/mL (≈ 3.08 µM); against Candida albicans, 4 µg/mL (≈ 3.08 µM); against Cryptococcus neoformans, 4 µg/mL (≈ 3.08 µM). Further, the MIC is 16 µg/mL (≈ 12.3 µM) in the experiment with Aspergillus fumigatus, 4 µg/mL (≈ 3.08 µM) with Clavispora lusitaniae and 4 µg/mL (≈ 3.08 µM) with Candida tropicalis.

`C[C@@H]1[C@H](O)[C@@H](C)/C=C/C=C/C=C/C=C/C=C/C=C/C=C/[C@H](O[C@@H]2O[C@H](C)[C@@H](O)[C@H](N)[C@@H]2O)C[C@@H]2O[C@](O)(C[C@@H](O)C[C@@H](O)[C@H](O)CC[C@@H](O)C[C@@H](O)CC(=O)O[C@H]1C)C[C@H](O)[C@H]2C(=O)O` [AMPHOTERICIN B]: the minimal inhibitory concentration (MIC) came out at 1 µg/mL (≈ 1.08 µM) in the experiment on Saccharomyces cerevisiae; 4 µg/mL (≈ 4.33 µM) against Aspergillus flavus; 1 µg/mL (≈ 1.08 µM) in the experiment on Nakaseomyces glabratus; 1 µg/mL (≈ 1.08 µM) in the experiment on Candida albicans; 2 µg/mL (≈ 2.16 µM) in the experiment with Aspergillus fumigatus; 1 µg/mL (≈ 1.08 µM) against Clavispora lusitaniae. The molecule further came in with a minimum inhibitory concentration (MIC) against Candida tropicalis of 2 µg/mL (≈ 2.16 µM).

The values are drawn from ChEMBL document CHEMBL1158725, “Microbial genomics as a guide to drug discovery and structural elucidation: ECO-02301, a novel antifungal agent, as an example” (2005).
